Converted amounts (≈) assume the structure as drawn. Blank lines part the entries; values can stand above or below the molecule they belong to.
Tests used:
Assay in all cases: in vitro antibacterial evaluation, MIC by broth dilution
Format in all cases: cell-based
Enterococcus sp. = settings: broth dilution, 18 hours at 35° C.
How it was run: (§1)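 Broth dilution per NCCLS standard M7-A2 in Muller-Hinton II […], with an inoculum of 5×10^5 CFU/mL and antibiotic spanning 64-0.06 μg/mL. The MIC is the lowest concentration that inhibits growth of the organism.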

Streptococcus sp. = settings: broth dilution, 18 hours at 35° C.
How it was run: as §1

Staphylococcus sp. = settings: broth dilution, 18 hours at 35° C.; for MIC Staphylococcus aureus (GC 1131): strain GC 1131; for MIC Staphylococcus aureus (ATCC 29213): strain ATCC 29213; for MIC Staphylococcus aureus (GC 3051): strain GC 3051; for MIC Staphylococcus aureus (GC 3053): strain GC 3053; for MIC Staphylococcus aureus (GC 4541): strain GC 4541; for MIC Staphylococcus aureus (GC 4542): strain GC 4542; for MIC Staphylococcus aureus-SMITH (GC 4543): strain GC 4543; for MIC Staphylococcus aureus (GC 4544): strain GC 4544; for MIC Staphylococcus aureus (GC 4545): strain GC 4545; for MIC Staphylococcus haemolyticus (GC 4546): strain GC 4546; for MIC Coagulase Negative Staphylococcus (GC 4547): strain GC 4547; for MIC Coagulase Negative Staphylococcus (GC 4548): strain GC 4548; for MIC Coagulase Negative Staphylococcus (GC 4549): strain GC 4549; for MIC Coagulase Negative Staphylococcus (GC 4551): strain GC 4551; for MIC Coagulase Negative Staphylococcus (GC 6257): strain GC 6257
How it was run: as §1

Escherichia coli = settings: 18 hours at 35° C.
[1] = inoculum 5×10^5 CFU/mL, strain ATCC 29212
[2] = inoculum 5×10^5 CFU/mL, strain GC 2242
[3] = inoculum 5×10^5 CFU/mL, strain GC 2243
[4] = inoculum 5×10^5 CFU/mL, strain GC 2691
[5] = inoculum 5×10^5 CFU/mL, strain GC 3059
[6] = inoculum 5×10^5 CFU/mL, strain GC 4552
[7] = inoculum 5×10^5 CFU/mL, strain GC 4553
[8] = inoculum 5×10^5 CFU/mL, strain GC 4554
[9] = inoculum 5×10^5 CFU/mL, strain GC 4556
[10] = inoculum 5×10^5 CFU/mL, strain GC 4557
[11] = inoculum 5×10^5 CFU/mL, strain GC 4558
[12] = inoculum 5×10^5 CFU/mL, strain GC 6189
[13] = inoculum 5×10^5 CFU/mL, strain ATCC 6301
[14] = inoculum 5×10^5 CFU/mL, strain GC 1894
[15] = inoculum 5×10^5 CFU/mL, strain GC 4563
[16] = inoculum 5×10^5 CFU/mL, strain GC 4564
[17] = inoculum 5×10^5 CFU/mL, strain GC 4565

MIC Enterococcus avium (GC 4558) (Enterococcus sp.): 32 µg/mL (≈ 20.7 µM)
MIC Enterococcus faecalis (ATCC 29212) (Enterococcus sp.): 32 µg/mL (≈ 20.7 µM)
MIC Enterococcus faecalis (GC 2242) (Enterococcus sp.): 32 µg/mL (≈ 20.7 µM)
MIC Enterococcus faecalis (GC 2691) (Enterococcus sp.): 32 µg/mL (≈ 20.7 µM)
MIC Enterococcus faecalis (GC 3059) (Enterococcus sp.): 32 µg/mL (≈ 20.7 µM)
MIC Enterococcus faecalis (GC 4552) (Enterococcus sp.): 32 µg/mL (≈ 20.7 µM)
MIC Enterococcus faecalis (GC 4553) (Enterococcus sp.): 16 µg/mL (≈ 10.4 µM)
MIC Enterococcus faecalis (GC 4554) (Enterococcus sp.): 32 µg/mL (≈ 20.7 µM)
MIC Enterococcus faecalis (GC 6189) (Enterococcus sp.): 32 µg/mL (≈ 20.7 µM)
MIC Enterococcus faecium (GC 2243) (Enterococcus sp.): 16 µg/mL (≈ 10.4 µM)
MIC Enterococcus faecium (GC 4556) (Enterococcus sp.): 32 µg/mL (≈ 20.7 µM)
MIC Enterococcus faecium (GC 4557) (Enterococcus sp.): 32 µg/mL (≈ 20.7 µM)
MIC Enterococcus faecalis (ATCC 29212) (Enterococcus sp.; [1]): 32 µg/mL (≈ 20.7 µM)
MIC Enterococcus faecalis (GC 2242) (Enterococcus sp.; [2]): 32 µg/mL (≈ 20.7 µM)
MIC Enterococcus faecium (GC 2243) (Enterococcus sp.; [3]): 16 µg/mL (≈ 10.4 µM)
MIC Enterococcus faecalis (GC 2691) (Enterococcus sp.; [4]): 32 µg/mL (≈ 20.7 µM)
MIC Enterococcus faecalis (GC 3059) (Enterococcus sp.; [5]): 32 µg/mL (≈ 20.7 µM)
MIC Enterococcus faecalis (GC 4552) (Enterococcus sp.; [6]): 32 µg/mL (≈ 20.7 µM)
MIC Enterococcus faecalis (GC 4553) (Enterococcus sp.; [7]): 16 µg/mL (≈ 10.4 µM)
MIC Enterococcus faecalis (GC 4554) (Enterococcus sp.; [8]): 32 µg/mL (≈ 20.7 µM)
MIC Enterococcus faecium (GC 4556) (Enterococcus sp.; [9]): 32 µg/mL (≈ 20.7 µM)
MIC Enterococcus faecium (GC 4557) (Enterococcus sp.; [10]): 32 µg/mL (≈ 20.7 µM)
MIC Enterococcus avium (GC 4558) (Enterococcus sp.; [11]): 32 µg/mL (≈ 20.7 µM)
MIC Enterococcus faecalis (GC 6189) (Enterococcus sp.; [12]): 32 µg/mL (≈ 20.7 µM)
MIC Streptococcus agalactiae (GC 4564) (Streptococcus sp.): 0.12 µg/mL (≈ 0.0777 µM)
MIC Streptococcus pneumoniae (ATCC 6301) (Streptococcus sp.): <0.06 µg/mL
MIC Streptococcus pneumoniae (GC 1894) (Streptococcus sp.): <0.06 µg/mL
MIC Streptococcus pneumoniae (GC 4565) (Streptococcus sp.): <0.06 µg/mL
MIC Streptococcus pyogenes (GC 4563) (Streptococcus sp.): 0.25 µg/mL (≈ 0.162 µM)
MIC Streptococcus pneumoniae (ATCC 6301) (Streptococcus sp.; [13]): <0.06 µg/mL
MIC Streptococcus pneumoniae (GC 1894) (Streptococcus sp.; [14]): <0.06 µg/mL
MIC Streptococcus pyogenes (GC 4563) (Streptococcus sp.; [15]): 0.25 µg/mL (≈ 0.162 µM)
MIC Streptococcus agalactiae (GC 4564) (Streptococcus sp.; [16]): 0.12 µg/mL (≈ 0.0777 µM)
MIC Streptococcus pneumoniae (GC 4565) (Streptococcus sp.; [17]): <0.06 µg/mL
MIC Staphylococcus aureus (GC 1131) (Staphylococcus sp.; inoculum 5×10^5 CFU/mL): 32 µg/mL (≈ 20.7 µM)
MIC Staphylococcus aureus (ATCC 29213) (Staphylococcus sp.): 32 µg/mL (≈ 20.7 µM)
MIC Staphylococcus aureus (GC 1131) (Staphylococcus sp.): 32 µg/mL (≈ 20.7 µM)
MIC Staphylococcus aureus (GC 3051) (Staphylococcus sp.): 32 µg/mL (≈ 20.7 µM)
MIC Staphylococcus aureus (GC 3053) (Staphylococcus sp.): 32 µg/mL (≈ 20.7 µM)
MIC Staphylococcus aureus (GC 4541) (Staphylococcus sp.): 32 µg/mL (≈ 20.7 µM)
MIC Staphylococcus aureus (GC 4542) (Staphylococcus sp.): 32 µg/mL (≈ 20.7 µM)
MIC Staphylococcus aureus-SMITH (GC 4543) (Staphylococcus sp.): 32 µg/mL (≈ 20.7 µM)
MIC Staphylococcus aureus (GC 4544) (Staphylococcus sp.): 32 µg/mL (≈ 20.7 µM)
MIC Staphylococcus aureus (GC 4545) (Staphylococcus sp.): 32 µg/mL (≈ 20.7 µM)
MIC Coagulase Negative Staphylococcus (GC 4547) (Staphylococcus sp.): 32 µg/mL (≈ 20.7 µM)
MIC Coagulase Negative Staphylococcus (GC 4548) (Staphylococcus sp.): 16 µg/mL (≈ 10.4 µM)
MIC Coagulase Negative Staphylococcus (GC 4549) (Staphylococcus sp.): 32 µg/mL (≈ 20.7 µM)
MIC Coagulase Negative Staphylococcus (GC 4551) (Staphylococcus sp.): 32 µg/mL (≈ 20.7 µM)
MIC Coagulase Negative Staphylococcus (GC 6257) (Staphylococcus sp.): 16 µg/mL (≈ 10.4 µM)
MIC Escherichia coli (ATCC 25922) (Escherichia coli): >64 µg/mL
MIC Escherichia coli (GC 4559) (Escherichia coli): >64 µg/mL
MIC Escherichia coli (GC 4560) (Escherichia coli): 32 µg/mL (≈ 20.7 µM)
Structure (SMILES): CC(c1ccccc1)C1NC(=O)CNC(=O)C(CO)NC(=O)C(C(O)C2CNC(=N)N2C2OC(CO)C(O)C(O)C2O)NC(=O)C(C(O)C2CNC(=N)N2)NC(=O)C(Cc2ccc(OC3OC(CO)C(OC4OC5COC(c6cccc(Oc7cccc(C(F)(F)F)c7)c6)OC5C(O)C4O)C(O)C3O)cc2)NC1=O (stereo not shown) [Example 184]
MIC Staphylococcus haemolyticus (GC 4546) (Staphylococcus sp.): 32 µg/mL (≈ 20.7 µM)

MIC Enterococcus avium (GC 4558) (Enterococcus sp.): 64 µg/mL (≈ 39.9 µM)
MIC Enterococcus faecalis (ATCC 29212) (Enterococcus sp.): >64 µg/mL
MIC Enterococcus faecalis (GC 2242) (Enterococcus sp.): >64 µg/mL
MIC Enterococcus faecalis (GC 2691) (Enterococcus sp.): >64 µg/mL
MIC Enterococcus faecalis (GC 3059) (Enterococcus sp.): >64 µg/mL
MIC Enterococcus faecalis (GC 4552) (Enterococcus sp.): >64 µg/mL
MIC Enterococcus faecalis (GC 4553) (Enterococcus sp.): 32 µg/mL (≈ 20 µM)
MIC Enterococcus faecalis (GC 4554) (Enterococcus sp.): >64 µg/mL
MIC Enterococcus faecalis (GC 6189) (Enterococcus sp.): >64 µg/mL
MIC Enterococcus faecium (GC 2243) (Enterococcus sp.): 32 µg/mL (≈ 20 µM)
MIC Enterococcus faecium (GC 4556) (Enterococcus sp.): >64 µg/mL
MIC Enterococcus faecium (GC 4557) (Enterococcus sp.): >64 µg/mL
MIC Enterococcus faecalis (ATCC 29212) (Enterococcus sp.; [1]): >64 µg/mL
MIC Enterococcus faecalis (GC 2242) (Enterococcus sp.; [2]): >64 µg/mL
MIC Enterococcus faecium (GC 2243) (Enterococcus sp.; [3]): 32 µg/mL (≈ 20 µM)
MIC Enterococcus faecalis (GC 2691) (Enterococcus sp.; [4]): >64 µg/mL
MIC Enterococcus faecalis (GC 3059) (Enterococcus sp.; [5]): >64 µg/mL
MIC Enterococcus faecalis (GC 4552) (Enterococcus sp.; [6]): >64 µg/mL
MIC Enterococcus faecalis (GC 4553) (Enterococcus sp.; [7]): 32 µg/mL (≈ 20 µM)
MIC Enterococcus faecalis (GC 4554) (Enterococcus sp.; [8]): >64 µg/mL
MIC Enterococcus faecium (GC 4556) (Enterococcus sp.; [9]): >64 µg/mL
MIC Enterococcus faecium (GC 4557) (Enterococcus sp.; [10]): >64 µg/mL
MIC Enterococcus avium (GC 4558) (Enterococcus sp.; [11]): 64 µg/mL (≈ 39.9 µM)
MIC Enterococcus faecalis (GC 6189) (Enterococcus sp.; [12]): >64 µg/mL
MIC Streptococcus agalactiae (GC 4564) (Streptococcus sp.): 1 µg/mL (≈ 0.624 µM)
MIC Streptococcus pneumoniae (ATCC 6301) (Streptococcus sp.): 0.12 µg/mL (≈ 0.0748 µM)
MIC Streptococcus pneumoniae (GC 1894) (Streptococcus sp.): <0.06 µg/mL
MIC Streptococcus pneumoniae (GC 4565) (Streptococcus sp.): <0.06 µg/mL
MIC Streptococcus pyogenes (GC 4563) (Streptococcus sp.): 16 µg/mL (≈ 9.98 µM)
MIC Streptococcus pneumoniae (ATCC 6301) (Streptococcus sp.; [13]): 0.12 µg/mL (≈ 0.0748 µM)
MIC Streptococcus pneumoniae (GC 1894) (Streptococcus sp.; [14]): <0.06 µg/mL
MIC Streptococcus pyogenes (GC 4563) (Streptococcus sp.; [15]): 16 µg/mL (≈ 9.98 µM)
MIC Streptococcus agalactiae (GC 4564) (Streptococcus sp.; [16]): 1 µg/mL (≈ 0.624 µM)
MIC Streptococcus pneumoniae (GC 4565) (Streptococcus sp.; [17]): <0.06 µg/mL
MIC Staphylococcus aureus (GC 1131) (Staphylococcus sp.; inoculum 5×10^5 CFU/mL): >64 µg/mL
MIC Staphylococcus aureus (ATCC 29213) (Staphylococcus sp.): >64 µg/mL
MIC Staphylococcus aureus (GC 1131) (Staphylococcus sp.): >64 µg/mL
MIC Staphylococcus aureus (GC 3051) (Staphylococcus sp.): >64 µg/mL
MIC Staphylococcus aureus (GC 3053) (Staphylococcus sp.): >64 µg/mL
MIC Staphylococcus aureus (GC 4541) (Staphylococcus sp.): >64 µg/mL
MIC Staphylococcus aureus (GC 4542) (Staphylococcus sp.): >64 µg/mL
MIC Staphylococcus aureus-SMITH (GC 4543) (Staphylococcus sp.): >64 µg/mL
MIC Staphylococcus aureus (GC 4544) (Staphylococcus sp.): >64 µg/mL
MIC Staphylococcus aureus (GC 4545) (Staphylococcus sp.): >64 µg/mL
MIC Coagulase Negative Staphylococcus (GC 4547) (Staphylococcus sp.): >64 µg/mL
MIC Coagulase Negative Staphylococcus (GC 4548) (Staphylococcus sp.): >64 µg/mL
MIC Coagulase Negative Staphylococcus (GC 4549) (Staphylococcus sp.): >64 µg/mL
MIC Coagulase Negative Staphylococcus (GC 4551) (Staphylococcus sp.): >64 µg/mL
MIC Coagulase Negative Staphylococcus (GC 6257) (Staphylococcus sp.): >64 µg/mL
MIC Escherichia coli (ATCC 25922) (Escherichia coli): >64 µg/mL
MIC Escherichia coli (GC 4559) (Escherichia coli): >64 µg/mL
MIC Escherichia coli (GC 4560) (Escherichia coli): >64 µg/mL
Structure (SMILES): CC(C)=CCCC(C)=CCCC(C)=CCOc1cccc(C2OCC3OC(OC4C(CO)OC(Oc5ccc(CC6NC(=O)C(C(C)c7ccccc7)NC(=O)CNC(=O)C(CO)NC(=O)C(C(O)C7CNC(=N)N7C7OC(CO)C(O)C(O)C7O)NC(=O)C(C(O)C7CNC(=N)N7)NC6=O)cc5)C(O)C4O)C(O)C(O)C3O2)c1 (stereo not shown) [Example 185]
MIC Staphylococcus haemolyticus (GC 4546) (Staphylococcus sp.): >64 µg/mL

— patent US6914045B2, “Glycopeptide antibiotics” (Wyeth Holdings Corporation, priority 2001, dated 2005)
